Paper PMC3907359, “Investigation of Acetylcholine Receptor Diversity in a Nematode Parasite Leads to Characterization of Tribendimidine- and Derquantel-Sensitive nAChRs” (PLoS Pathogens, 2014)

Assays:
Format in all cases: cell-based
Ode(29-63-8), ACh-nAChR [1] = target: T1, Ode(29-63-8), ACh-nAChR (Oesophagostomum dentatum, UniProt E5KIX9+L7MMZ7+V5J2B2); test: two-electrode voltage clamp, Xenopus oocytes, agonist dose-response
T1 construct: full-length cDNAs (UNC-29 497 aa, UNC-63 507 aa, ACR-8 538 aa), pTB-207, cRNA 1:1:1 in Xenopus laevis oocytes; heteropentamer, stoichiometry undetermined; with H. contortus chaperones RIC-3, UNC-50, UNC-74
T1 sequence (V5J2B2 21-497): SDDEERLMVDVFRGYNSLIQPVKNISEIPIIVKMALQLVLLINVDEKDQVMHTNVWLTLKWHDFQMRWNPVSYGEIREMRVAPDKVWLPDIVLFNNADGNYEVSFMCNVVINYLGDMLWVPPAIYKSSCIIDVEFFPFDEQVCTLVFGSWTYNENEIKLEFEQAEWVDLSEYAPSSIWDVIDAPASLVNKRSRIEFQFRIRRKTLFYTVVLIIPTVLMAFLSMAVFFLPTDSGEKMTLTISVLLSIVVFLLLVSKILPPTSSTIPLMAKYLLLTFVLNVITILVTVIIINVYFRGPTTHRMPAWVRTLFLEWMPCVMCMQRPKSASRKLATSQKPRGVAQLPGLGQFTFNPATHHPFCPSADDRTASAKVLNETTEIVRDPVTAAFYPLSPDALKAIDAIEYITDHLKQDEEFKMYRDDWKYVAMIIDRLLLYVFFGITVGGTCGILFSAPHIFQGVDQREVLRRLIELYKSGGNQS
T1 sequence (E5KIX9 22-507): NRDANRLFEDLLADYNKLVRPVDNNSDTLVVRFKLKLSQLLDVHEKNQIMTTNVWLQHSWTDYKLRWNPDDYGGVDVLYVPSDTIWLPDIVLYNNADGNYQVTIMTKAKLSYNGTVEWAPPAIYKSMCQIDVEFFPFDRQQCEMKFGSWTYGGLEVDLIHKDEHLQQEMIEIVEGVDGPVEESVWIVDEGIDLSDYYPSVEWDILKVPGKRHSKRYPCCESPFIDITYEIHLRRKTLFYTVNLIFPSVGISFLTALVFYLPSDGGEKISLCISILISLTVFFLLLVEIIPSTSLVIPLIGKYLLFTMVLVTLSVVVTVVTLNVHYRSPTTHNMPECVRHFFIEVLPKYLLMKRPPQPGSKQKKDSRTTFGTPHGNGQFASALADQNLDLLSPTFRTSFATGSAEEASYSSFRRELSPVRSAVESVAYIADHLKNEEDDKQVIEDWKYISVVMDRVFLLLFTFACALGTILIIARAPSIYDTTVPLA
T1 sequence (L7MMZ7 21-538): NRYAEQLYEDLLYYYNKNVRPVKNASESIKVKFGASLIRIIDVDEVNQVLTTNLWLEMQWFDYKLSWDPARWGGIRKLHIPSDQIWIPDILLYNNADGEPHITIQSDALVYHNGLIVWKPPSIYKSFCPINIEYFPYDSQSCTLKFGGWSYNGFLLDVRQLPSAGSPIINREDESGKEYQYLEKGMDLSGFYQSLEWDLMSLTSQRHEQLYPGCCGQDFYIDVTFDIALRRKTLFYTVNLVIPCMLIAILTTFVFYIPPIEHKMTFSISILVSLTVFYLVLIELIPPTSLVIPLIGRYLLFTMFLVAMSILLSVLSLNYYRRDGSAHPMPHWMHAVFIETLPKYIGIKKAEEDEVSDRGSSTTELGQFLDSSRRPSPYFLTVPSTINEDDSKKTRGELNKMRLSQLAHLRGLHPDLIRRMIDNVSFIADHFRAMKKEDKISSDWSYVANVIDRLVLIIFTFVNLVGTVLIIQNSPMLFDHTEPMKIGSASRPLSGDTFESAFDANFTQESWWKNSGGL
Excerpt: two-electrode voltage clamp, Xenopus oocytes, agonist dose-response on Ode(29-63-8), ACh-nAChR

[2] = target: T2, Ode(29-63-8-38), Lev-nAChR (Oesophagostomum dentatum, UniProt E5KIX9+L7MMZ7+V5J2B2+V5J336); test: as above
T2 construct: full-length cDNAs (UNC-29 497 aa, UNC-63 507 aa, ACR-8 538 aa, UNC-38 507 aa), pTB-207, cRNA 1:1:1:1 in Xenopus laevis oocytes; heteropentamer, stoichiometry undetermined; with H. contortus chaperones RIC-3, UNC-50, UNC-74
T2 sequence (V5J336 21-507, one chain of several): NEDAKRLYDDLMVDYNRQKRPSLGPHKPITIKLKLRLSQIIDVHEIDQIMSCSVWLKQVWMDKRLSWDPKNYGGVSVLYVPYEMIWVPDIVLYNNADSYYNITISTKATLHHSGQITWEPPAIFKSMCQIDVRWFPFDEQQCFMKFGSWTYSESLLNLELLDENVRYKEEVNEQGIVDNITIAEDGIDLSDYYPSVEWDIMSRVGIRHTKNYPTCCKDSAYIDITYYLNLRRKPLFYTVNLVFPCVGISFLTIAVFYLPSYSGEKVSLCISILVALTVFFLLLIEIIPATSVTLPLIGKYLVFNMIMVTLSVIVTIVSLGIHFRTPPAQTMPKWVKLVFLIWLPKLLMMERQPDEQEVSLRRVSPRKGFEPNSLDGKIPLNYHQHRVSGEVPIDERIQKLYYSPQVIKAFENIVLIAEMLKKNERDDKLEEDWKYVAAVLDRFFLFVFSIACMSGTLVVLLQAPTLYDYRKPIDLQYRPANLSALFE
Excerpt: two-electrode voltage clamp, Xenopus oocytes, agonist dose-response on Ode(29-63-8-38), Lev-nAChR

Ode(29-63-8), ACh-nAChR [3] = target: T1, Ode(29-63-8), ACh-nAChR; test: voltage clamp, oocytes; single concentration current; conditions: agonist, 30 µM

SMILES | EC50 (Ode(29-63-8), ACh-nAChR [1]) | EC50 [2] | voltage clamp, oocytes; single concentration current (Ode(29-63-8), ACh-nAChR [3])
CC(=O)OCC[N+](C)(C)C [acetylcholine] | 3.5 ± 0.2 µM | 4.2 ± 0.2 µM | 
C[N+](C)(CCOc1ccccc1)Cc1ccccc1 [bephenium] |  |  | responses to all the agonists we tested, including bephenium and thenium
